Measured values reported in patent US6387388B1, “Pesticidal formulation” (Merck & Co., Inc., priority 1995, dated 2002).
“Also recorded” adds a separate entry of the source.

What was measured:
[1] = system: tomato fruitworm (Helicoverpa zea); assay: Field efficacy study, weekly foliar sprays on tomato; format: in vivo
Text: ‘Roma’ tomato transplants were planted in the field on June 10. Each plot was one row (5 ft centers) by 20 feet (=0.0022957 acre). Plots were separated within rows by at least 6 feet of unplanted ground and across rows by 24 feet. A single row of sweet corn (‘Silver Queen’) was planted mid-way between rows. Weeds are allowed to grow in the ground between the tomato and sweet corn rows, but were kept mowed. Weeds were controlled within tomato rows by a single application of Sencor 75 DF applied as a directed spray at the rate of 0.5 lb a.i./acre on June 20. Foliar applications of Dithane M45 at 1.5 lb a.i./acre were made every 5 days beginning July 1 and continuing through harvest for control of foliar diseases. In addition, calcium nitrate at 4 lb/acre was applied on July 10, 17, 24 and 31 for control of blossom-end rot. All insecticide treatments were applied as foliar sprays on July 23, 30, August 6, and 13. Applications were made using a CO2-powered, backpack sprayer calibrated to deliver 55 gallons of spray per acre at 42 psi. […]
The experimental treatments were replicated 4 times in a randomized complete block experimental design. The incidence of fruitworm damage to the fruit was determined in each plot on August 11, when the first fruit reached market maturity, and again on August 16. […]

[2] = soluble in 1 liter of water; cited from earlier work
eye of a rabbit = assay: Neat emamectin benzoate, acute ocular irritation study in rabbits; format: in vivo, albino rabbits (New Zealand white)
Description: Three male and three female albino rabbits (New Zealand white) 25 to 26 weeks of age and weighing 3.23 to 3.66 kg was used in this study. The test compound was ground into a fine powder and a volume of 0.1 cc (approximately 28 mg) was placed in the conjunctival sac of the left eye of each rabbit. Immediately after administration, the eyelids of the treated eye were held together for one second to prevent loss of material and released. The right eye was used as an untreated control.
Ocular examinations were made recorded at 1, 24, 48 and 72 hours post-instillation in all rabbits and were scored by the Draize Method (J. Pharmacol. Exp. Therap. 82:377-390 (1944)). Because of severe ocular reactions, three rabbits were euthanized following the 72-hour reading. Scores were recorded for the three remaining rabbits once daily through 14 days post-instillation except on weekends.

CC1(C)[C@H](C(=O)O[C@H](C#N)c2cccc(Oc3ccccc3)c2)[C@@H]1/C=C(\Cl)C(F)(F)F (racemic) [lambda-cyhalothrin]
overall mean percentage of damaged fruit ([1]; foliar): 1.0%

COP(=O)(NC(C)=O)SC (stereo not drawn) [acephate]
amount soluble in water [2]: 650 g

CC(C)[C@H](C(=O)O[C@H](C#N)c1cccc(Oc2ccccc2)c1)c1ccc(Cl)cc1 [esfenvalerate]
overall mean percentage of damaged fruit ([1]; tomato, Asana XL 0.66 EC at 0.036 lb active ingredient per acre, applied weekly, untreated control 18.5%): 0.0%

benzoate salt of 4″-deoxy-4″-epi-methylamino avermectin B1a/B1b [emamectin benzoate]
ocular irritation rating (eye of a rabbit; 0.1 cc (approximately 28 mg) fine powder in conjunctival sac, six rabbits, listed as neat emamectin benzoate): severely irritating; also recorded: severe, irreversible eye irritant
ocular reactions in the three rabbits euthanized early, through 72 hours (eye of a rabbit; approximately 28 mg in conjunctival sac): chemosis became severe
ocular reactions at one hour (eye of a rabbit; approximately 28 mg in conjunctival sac, six rabbits, listed as neat emamectin benzoate): the eyes of four rabbits had congestion of the iris; also recorded: corneal anesthesia and conjunctival irritation; also recorded: moderate redness, slight or moderate chemosis and severe colorless discharge
ocular reactions at 24 hours (eye of a rabbit; approximately 28 mg in conjunctival sac, listed as neat emamectin benzoate): an additional rabbit had congestion of the iris; also recorded: very slight corneal opacity covering less than ¼ of the corneal surface; also recorded: corneal anesthesia was still present, redness was severe, chemosis was never more than moderate
body weight loss (eye of a rabbit; rabbits euthanized early): less than 7%
corneal anesthesia lasted through (eye of a rabbit; two of the three remaining rabbits): 72 h
